# In patent publication US7235401B2, “Method for determining cell cycle position” (GE Healthcare UK Limited, priority 2001, dated 2007):
# Entries after “also recorded” stand apart in the source; their conditions may differ.
# Columns and labels:
# U20S cells (ATCC HTB-96) = assay: Effect of cell cycle blocking agents on GFP fluorescence from cell cycle phase marker using transiently transfected cells; assay type: cell-based; settings: U20S cells transiently transfected with cyclin B1 promoter/D-box/CRS-GFP reporter; 24 hours exposure; confocal scanning imager (FIG. 5)
# Experimental: U20S cells (ATCC HTB-96) were cultured in wells of a 96 well microtitre plate. Cells were transfected with a cell cycle reporter construct prepared according to Example 1, comprising a cyclin B1 promoter operably linked to sequences encoding the cyclin B1 D-box, the cyclin B1 CRS, and GFP in a pCORON4004 vector (Amersham Biosciences) using Fugene 6 (Roche) as the transfection agent.
# Following 24 hours of culture, cells were exposed to the specific cell cycle blockers mimosine (blocks at G1/S phase boundary) or demecolcine (blocks in M phase). Control cells were exposed to culture media alone.
# Cells were incubated for a further 24 hours and then analysed for nuclear GFP expression using a confocal scanning imager with automated image analysis (IN Cell Analysis System, Amersham Biosciences).
# U2-OS cells = assay: Effect of cell cycle inhibiting drugs on GFP expression levels, FACS analysis of stable EGFP reporter cell line; assay type: cell-based; settings: 100 ng/ml demecolcine or 1 mM mimosine for 24 hours (FIG. 9)
# Excerpt: The green fluorescent protein reporter sequence in the vector described in example 1 was replaced with enhanced GFP (EGFP; Cormack, B. P. et al, Gene, (1996), 173, 33–38; BD Clontech) by standard methods. The EGFP gene is a brighter form of GFP containing the mutations F64L and S65T. In addition, EGFP contains codons that have been altered to optimise expression in mammalian cells. This new construct was transfected into U2-OS cells and a number of colonies were isolated by selection with geneticin followed by sorting of single cells using a fluorescence activated cell sorter.
# The cells were prepared for FACS analysis by standard methods. Briefly the cells were fixed and permeabilised using CytoFix/CytoPerm (Becton Dickinson) according to the manufacturers procedures. The cells were then treated with 50 μg/ml RNAse and 0.4% Triton X-100 and counterstained with 100 μg/ml propidium iodide. The degree of propidium iodide staining is proportional to the amount of DNA in the cell and therefore a measure of the cell cycle phase of the cell. As expected, the degree of red propidium iodide staining and the amount of green GFP fluorescence appear to be proportional in the cells.
# The cells prepared in Example 5 were grown in 25 cm^2 flasks and treated with either 100 ng/ml demecolcine (Sigma) or 1 mM mimosine (Sigma) for 24 hours. The cells were then fixed, permeabilised and stained with propidium iodide as described in example 5.
SMILES,nuclear GFP fluorescence compared to control cells (U20S cells (ATCC HTB-96)),"cell cycle phase of arrest (FACS, propidium iodide staining) (U2-OS cells)","relative green fluorescence intensity (FACS, FL1H) (U2-OS cells)","cell cycle phase of arrest (FACS, propidium iodide staining) (U2-OS cells; listed as colchicine)","relative green fluorescence intensity (FACS, FL1H) (U2-OS cells; listed as colchicine)"
CN[C@H]1CCc2cc(OC)c(OC)c(OC)c2-c2ccc(OC)c(=O)cc21 [demecolcine],increased fluorescence,arrested in G2/M,brighter than the cells that had been arrested at G1/S,blocked in G2/M,relatively high green fluorescence
NC(Cn1ccc(=O)c(O)c1)C(=O)O (centres unmarked) [mimosine],decreased fluorescence,partially blocked in G1/S; also recorded: arrested at the G1/S boundary,relatively low green fluorescence,,
